Test [1] has as its system MHCC97L cells. The test is described as follows: RNA-sequencing of drug-treated cells. Format: cell-based, human. To be noted: 10 μM ifenprodil, 5 μM sorafenib, 24 hours. The method, then:
3×10^5 MHCC97L cells were seeded onto a 10 -cm dish. 10 μM ifenprodil, 5 μM sorafenib, or both were added to the cells 1 day after seeding, and the control group was treated with DMSO (Sigma-Aldrich). After 24 hours of drug treatment, RNA was extracted using the MiniBEST Universal RNA Extraction Kit (TaKaRa) following the manufacturer's protocol. The final product was eluted in DEPC-treated H2O (ThermoFisher Scientific). RNA-seq experiments were performed at the Centre for Genomic Sciences (LKS Faculty of Medicine, The University of Hong Kong). The Illumina adaptors of the paired-end raw sequence reads were trimmed by Trimmomatic 0.39. The STAR aligner version 2.7 was used to align the sequence reads to the human genome (GRCh38.p13, Ensembl release 99) and quantify read counts for each Ensembl gene feature, which generated the raw count gene matrix. Differential expression analysis was performed in R (v 3.6.3) using DESeq2 (1.26.0) with the raw count matrix as input. Three biological replicates each for the ifenprodil-, sorafenib-, and ifenprodil+sorafenib combination-treated groups are compared against the DMSO-treated negative control group. Differentially expressed genes (DEGs) were identified as genes with the absolute values of its shrunken log2 fold-changes bigger than 1 and a false discovery rate smaller than 0.05. Gene annotation was done using the bioMaRt (2.42.1) package with Ensembl Human genes (GRCh38.p13) dataset. Gene ontology enrichment analysis was performed on up/down regulated DEGs retrieved from either ifenprodil, sorafenib, or ifenprodil+sorafenib treatment using string v11.0 (internet site: string-db.org/). Top hits Gene ontologies (biological processes) were identified as GO enriched with a false discovery rate less than 0.01 and contain more than 40 observations for over-expressions and down-regulations of DEGs in total across all treatments. More specific GO terms containing fewer than 3000 genes and fewer than 300 observations across all treatments were then focused on.

Test [2] concerns MHCC97L-derived and patient-derived xenografts. The test is described as follows: Western blot and immunohistochemistry of resected xenografts. Particulars: HCC patient-derived xenograft PDX1. Format: in vivo, mouse. The method, then:
5×10^5 MHCC97L cells, 3.5×10^5 cells (for PDX1) and 1×10^5 cells (for PDX2) dissociated from HCC patient derived xenograft (PDX), were injected subcutaneously into the left flank of 4 to 5-week-old male BALB/c nude mice and NOD/SCID mice, respectively. 1×10^4 RIL-175 cells were injected into the right median lobe of the livers from 9 to 12-week-old male C57BL/6N mice. Size of subcutaneously xenografted tumors was measured by an external caliper and tumor volume was estimated by the equation: Volume=½ (Length×Width^2), where the length and width represent the largest and smallest diameters, respectively. Drug administration began when the subcutaneous tumor reached ˜0.05 cm3 in size or at day 5 post-injection (for RIL-175 cells), at which point mice were divided into four groups randomly for daily treatment with DMSO, ifenprodil (20 mg/kg/day, intraperitoneally), sorafenib (28 mg/kg/day, orally), or the combination. […] Tumor volume and body weight of each mouse were then measured every two days. […] The mice were checked every two days, and tumor incidence and latency were recorded. […]
Cells or homogenized tissues collected from xenografts were lysed by 2X RIPA lysis buffer supplemented with protease inhibitor cocktail (ProBlock™ Gold Mammalian, Goldbio), PhosSTOP (Roche), 1 mM Na3VO4, and 1 mM NaF. […] Supernatants were quantified using the Bradford assay (BioRad). […]

Test [3] deals with patient-derived xenografts. The test is described as follows: Limiting dilution and serial transplantation into secondary mouse recipients. Format: in vivo. The method, then: 5×10^5 MHCC97L cells, 3.5×10^5 cells (for PDX1) and 1×10^5 cells (for PDX2) dissociated from HCC patient derived xenograft (PDX), were injected subcutaneously into the left flank of 4 to 5-week-old male BALB/c nude mice and NOD/SCID mice, respectively. 1×10^4 RIL-175 cells were injected into the right median lobe of the livers from 9 to 12-week-old male C57BL/6N mice. Size of subcutaneously xenografted tumors was measured by an external caliper and tumor volume was estimated by the equation: Volume=½ (Length×Width^2), where the length and width represent the largest and smallest diameters, respectively. Drug administration began when the subcutaneous tumor reached ˜0.05 cm3 in size or at day 5 post-injection (for RIL-175 cells), at which point mice were divided into four groups randomly for daily treatment with DMSO, ifenprodil (20 mg/kg/day, intraperitoneally), sorafenib (28 mg/kg/day, orally), or the combination. Ifenprodil and sorafenib were purchased from Selleckchem (#54091) and LC laboratories (#S-8502), respectively. The drug treatment was started after grouping, and lasted for 21 days. Tumor volume and body weight of each mouse were then measured every two days. The estimated tumor volume served as a guide for determining the day when the mice were sacrificed to take actual measurements on the resected tumors. The mice were sacrificed, and the tumor tissues were collected at the end of treatment. Part of the tumor tissues was snap-frozen in liquid nitrogen for protein extraction and immunoblot analysis. Part of the tissues was fixed in 4% paraformaldehyde (PFA) at room temperature for histological staining. The remaining tissues were dissociated into single cells for the limiting dilution spheroid formation assay. To evaluate the tumor-initiating and self-renewal abilities of the drug-treated tumors derived from MHCC97L cells and PDX1 in vivo, limiting dilution and serial transplantation assays were performed. 500, 1,000, 5,000, 10,000, 50,000 cells dissociated from the residual tumor tissues were injected subcutaneously into either flank of 4-5 week-old mice. No drug treatment was further applied. The mice were checked every two days, and tumor incidence and latency were recorded. To evaluate HCC metastases, 4×10^4 RIL-175 cells were injected through tail vein into 6- to 8-week-old male nude mice. Drug administration began at day 5 post-injection, and daily treatment with DMSO, ifenprodil (20 mg/kg/day, intraperitoneally), sorafenib (28 mg/kg/day, orally), or the combination was applied for 10 days before resection of lung tumors. At five and twelve days after the tail-vein injection, the mice were administered 100 mg/kg D-luciferin via peritoneal injection for bioluminescent imaging (using the PE IVIS Spectrum in vivo imaging system) to monitor the lung metastasis.
To determine the efficacy of the drug combination of IFEN and SOR in vivo, MHCC97L cell- and HCC patient-derived xenografts were implanted into mice. […] Briefly, HCC patient-derived xenograft was subcutaneously injected in NOD/SCID mice and treated with 20 mg/kg ifenprodil, 28 mg/kg sorafenib, or combination of ifenprodil and sorafenib, for 21 days. Protein lysates were collected from the resected tumors and analyzed by Western blot. […] Spheroid formation assay was performed on cells being harvested from the same residual xenografts to evaluate their self-renewal ability. […] Combined treatment of ifenprodil and sorafenib decreased the repropagation capability of HCC cells in vivo. Residual tumor cells were harvested from the drug(s)-treated patient-derived xenografts and 50,000, 10,000, 5,000, 1,000, and 500 cells were transplanted into secondary NOD/SCID mouse recipients (n=6 per group). Average tumor latency and incidence were recorded, and tumor-initiating cell frequency was calculated.

The mark [4] stands for this setting: 50,000 cells transplanted, n=6 per group.
The mark [5] stands for this setting: 50,000 cells transplanted, secondary NOD/SCID recipients.

On to `CC(C(O)c1ccc(O)cc1)N1CCC(Cc2ccccc2)CC1` (stereo not shown) [Ifenprodil, ifenprodil], for which the “CDK1A expression (RNA-seq) compared to non-treated cells” value in test [1] is recorded as “significantly upregulated”. In test [1], the “CDK2 expression (RNA-seq) compared to non-treated cells” value was “significantly downregulated”. In test [1], the “DDIT3 expression (RNA-seq) compared to non-treated cells” value was “significantly upregulated”. The “ERN1 expression (RNA-seq) compared to non-treated cells” value in test [1] is given as “no differences were observed”. For the same compound, in test [2], the “tumor vasculature (CD31-positive vessels)” value is recorded as “inhibited tumor vasculature”. Besides, the Average tumor latency is recorded as 33 days in test [3] (500 cells transplanted); 28.33 days in test [3] (1,000 cells transplanted); 31.33 days in test [3] (5,000 cells transplanted); 21 days in test [3] (10,000 cells transplanted); 24 days in test [3] (setting [5]). For the same compound, the Tumor incidence is 4/6 in test [3] (500 cells transplanted); 6/6 in test [3] (1,000 cells transplanted); 6/6 in test [3] (5,000 cells transplanted); 6/6 in test [3] (10,000 cells transplanted); 6/6 in test [3] (setting [4]).

For the compound `CNC(=O)c1cc(Oc2ccc(NC(=O)Nc3ccc(Cl)c(C(F)(F)F)c3)cc2)ccn1` [Sorafenib, sorafenib], the “CDK1A expression (RNA-seq) compared to non-treated cells” value in test [1] was “significantly upregulated”. In addition, the “CDK2 expression (RNA-seq) compared to non-treated cells” value in test [1] was “significantly downregulated”. In addition, in test [1], the “DDIT3 expression (RNA-seq) compared to non-treated cells” value is “significantly upregulated”. Further, the “ERN1 expression (RNA-seq) compared to non-treated cells” value in test [1] is given as “significantly upregulated”. In addition, in test [2], the “tumor vasculature (CD31-positive vessels)” value is “inhibited tumor vasculature”. In addition, the Average tumor latency in test [3] (500 cells transplanted) is on record as 34 days; in test [3] (1,000 cells transplanted), 29 days; in test [3] (5,000 cells transplanted) it was 21.67 days; in test [3] (10,000 cells transplanted) it was 21.33 days; in test [3] (setting [5]) it was 22.33 days. In addition, the Tumor incidence was 3/6 in test [3] (500 cells transplanted); 6/6 in test [3] (1,000 cells transplanted); 6/6 in test [3] (5,000 cells transplanted); 6/6 in test [3] (10,000 cells transplanted); 6/6 in test [3] (setting [4]). Besides, the “cancer stemness in the HCC mouse models after treatment” value in test [3] (HCC mouse models) is reported as “increased cancer stemness”.
